In patent publication US8802895B2, “Amide derivatives of benzene-sulfonanilide, pharmaceutical composition thereof and method for cancer treatment using the same” (Cleveland State University, priority 2010, dated 2014):

Key:
Assay type in all cases: cell-based
[1] = tested on: A549/ATCC; test: NCIDTP 60 cancer cell lines screening, Non-Small Cell Lung Cancer panel
[2] = tested on: NCI-H322M; test: as above
[3] = tested on: NCI-H522; test: as above
[4] = tested on: HT29; test: NCIDTP 60 cancer cell lines screening, Colon Cancer panel
[5] = tested on: KM12; test: as above
[6] = tested on: SNB-19; test: NCIDTP 60 cancer cell lines screening, CNS Cancer panel
[7] = tested on: OVCAR-4; test: NCIDTP 60 cancer cell lines screening, Ovarian Cancer panel
[8] = tested on: OVCAR-8; test: as above
[9] = tested on: MDA-MB-231/ATCC; test: NCIDTP 60 cancer cell lines screening, Breast Cancer panel

`Cc1ccc(C)c(COc2cc(NC(=O)c3ccc4c(c3)OCO4)ccc2N(C)S(C)(=O)=O)c1` [Compound #10, Benzo[1,3]dioxole-5-carboxylic acid [3-(2,5-dimethyl-benzyloxy)-4-(methanesulfonyl-methyl-amino)-phenyl]-amide] was tested, and the TGI ([1]; A549/ATCC) was 1.36E−5 Molar, the “Percent Growth” value ([1]; A549/ATCC, Log10 Concentration −4.0 Molar) was −29% and the “Percent Growth” value ([1]; A549/ATCC, Log10 Concentration −5.0 Molar) was 5%. For the same compound, the “Percent Growth” value ([1]; A549/ATCC, Log10 Concentration −6.0 Molar) was 12%, the “Percent Growth” value ([1]; A549/ATCC, Log10 Concentration −7.0 Molar) was 80% and the “Percent Growth” value ([1]; A549/ATCC, Log10 Concentration −8.0 Molar) was 97%. For the same compound, the CC50 ([1]; Homo sapiens, A549, read-out: LC50) was > 100000 nM, the GI50 ([1]; Homo sapiens, A549/ATCC) was 278 nM and the TGI [2] was >1.00E−4 Molar. The GI50 ([2]; Homo sapiens) was 468 nM, the CC50 ([2]; Homo sapiens, read-out: LC50) was > 100000 nM and the “Percent Growth” value ([2]; Log10 Concentration −4.0 Molar) was 28%. The “Percent Growth” value ([2]; Log10 Concentration −5.0 Molar) was 26%, the “Percent Growth” value ([2]; Log10 Concentration −6.0 Molar) was 30% and the “Percent Growth” value ([2]; Log10 Concentration −7.0 Molar) was 91%. For the same compound, the “Percent Growth” value ([2]; Log10 Concentration −8.0 Molar) was 94%, the GI50 ([3]; Homo sapiens, NCI-H522) was 33.5 nM and the CC50 ([3]; Homo sapiens, NCI-H522, read-out: LC50) was > 100000 nM. The TGI ([3]; NCI-H522) was 2.40E−7 Molar, the “Percent Growth” value ([3]; NCI-H522, Log10 Concentration −4.0 Molar) was −36% and the “Percent Growth” value ([3]; NCI-H522, Log10 Concentration −5.0 Molar) was −42%. For the same compound, the “Percent Growth” value ([3]; NCI-H522, Log10 Concentration −6.0 Molar) was −37%, the “Percent Growth” value ([3]; NCI-H522, Log10 Concentration −7.0 Molar) was 23% and the “Percent Growth” value ([3]; NCI-H522, Log10 Concentration −8.0 Molar) was 80%. The TGI ([4]; HT29) was 4.19E−7 Molar, the “Percent Growth” value ([4]; HT29, Log10 Concentration −4.0 Molar) was −48% and the “Percent Growth” value ([4]; HT29, Log10 Concentration −5.0 Molar) was −48%. The “Percent Growth” value ([4]; HT29, Log10 Concentration −6.0 Molar) was −26%, the “Percent Growth” value ([4]; HT29, Log10 Concentration −7.0 Molar) was 44% and the “Percent Growth” value ([4]; HT29, Log10 Concentration −8.0 Molar) was 101%. The CC50 ([4]; Homo sapiens, HT-29, read-out: LC50) was > 100000 nM, the GI50 ([4]; Homo sapiens, HT-29, HT29) was 77.2 nM and the “inhibition of cancer cell growth (NCI screening results, in words)” value ([4]; many types of cancer cell including HT29 colon cancer cells) was “very potent to inhibit the growth”. The GI50 ([5]; Homo sapiens, KM12) was 85.5 nM, the CC50 ([5]; Homo sapiens, KM12, read-out: LC50) was > 100000 nM and the TGI ([5]; KM12) was 1.13E−6 Molar. The “Percent Growth” value ([5]; KM12, Log10 Concentration −4.0 Molar) was −29%, the “Percent Growth” value ([5]; KM12, Log10 Concentration −5.0 Molar) was −19% and the “Percent Growth” value ([5]; KM12, Log10 Concentration −6.0 Molar) was 1%. The “Percent Growth” value ([5]; KM12, Log10 Concentration −7.0 Molar) was 47%, the “Percent Growth” value ([5]; KM12, Log10 Concentration −8.0 Molar) was 93% and the GI50 ([6]; Homo sapiens, SNB-19) was 537 nM. The CC50 ([6]; Homo sapiens, SNB-19, read-out: LC50) was > 100000 nM, the TGI ([6]; SNB-19) was >1.00E−4 Molar and the “Percent Growth” value ([6]; SNB-19, Log10 Concentration −4.0 Molar) was 39%. For the same compound, the “Percent Growth” value ([6]; SNB-19, Log10 Concentration −5.0 Molar) was 30%, the “Percent Growth” value ([6]; SNB-19, Log10 Concentration −6.0 Molar) was 36% and the “Percent Growth” value ([6]; SNB-19, Log10 Concentration −7.0 Molar) was 89%. For the same compound, the “Percent Growth” value ([6]; SNB-19, Log10 Concentration −8.0 Molar) was 93%, the CC50 ([7]; Homo sapiens, OVCAR-4, read-out: LC50) was > 100000 nM and the TGI ([7]; OVCAR-4) was >1.00E−4 Molar. The “Percent Growth” value ([7]; OVCAR-4, Log10 Concentration −4.0 Molar) was 56%, the “Percent Growth” value ([7]; OVCAR-4, Log10 Concentration −5.0 Molar) was 47% and the “Percent Growth” value ([7]; OVCAR-4, Log10 Concentration −6.0 Molar) was 54%. The “Percent Growth” value ([7]; OVCAR-4, Log10 Concentration −7.0 Molar) was 90%, the “Percent Growth” value ([7]; OVCAR-4, Log10 Concentration −8.0 Molar) was 87% and the GI50 ([8]; Homo sapiens, OVCAR-8) was 265 nM. For the same compound, the CC50 ([8]; Homo sapiens, OVCAR-8, read-out: LC50) was > 100000 nM, the TGI ([8]; OVCAR-8) was >1.00E−4 Molar and the “Percent Growth” value ([8]; OVCAR-8, Log10 Concentration −4.0 Molar) was 6%. For the same compound, the “Percent Growth” value ([8]; OVCAR-8, Log10 Concentration −5.0 Molar) was 8%, the “Percent Growth” value ([8]; OVCAR-8, Log10 Concentration −6.0 Molar) was 10% and the “Percent Growth” value ([8]; OVCAR-8, Log10 Concentration −7.0 Molar) was 80%. For the same compound, the “Percent Growth” value ([8]; OVCAR-8, Log10 Concentration −8.0 Molar) was 94%, the CC50 ([9]; Homo sapiens, MDA-MB-231, read-out: LC50) was > 100000 nM and the GI50 ([9]; Homo sapiens, MDA-MB-231/ATCC) was 256 nM. The TGI ([9]; MDA-MB-231/ATCC) was 9.26E−7 Molar, the “Percent Growth” value ([9]; MDA-MB-231/ATCC, Log10 Concentration −4.0 Molar) was −7% and the “Percent Growth” value ([9]; MDA-MB-231/ATCC, Log10 Concentration −5.0 Molar) was −17%. The “Percent Growth” value ([9]; MDA-MB-231/ATCC, Log10 Concentration −6.0 Molar) was −3%, the “Percent Growth” value ([9]; MDA-MB-231/ATCC, Log10 Concentration −7.0 Molar) was 87% and the “Percent Growth” value ([9]; MDA-MB-231/ATCC, Log10 Concentration −8.0 Molar) was 90%.
